Measured values from the NIST ThermoML archive (doi:10.1021/je700015t).
± gives the expanded uncertainty stated by the source.

Settings: 101.33 kPa, Liquid

Row | Compound | mass density (253.15 K) | mass density (263.15 K) | mass density (273.15 K) | mass density (283.15 K) | mass density (298.15 K) | mass density (323.15 K) | mass density (293.15 K) | mass density (343.15 K) | mass density (363.15 K) | mass density (393.15 K) | mass density (423.15 K) | mass density (243.15 K) | mass density (383.15 K) | mass density (403.15 K)
1 | CCCCBr [1-bromobutane] | 1326.5 ± 1.7 kg/m3 | 1313.8 ± 1.6 kg/m3 | 1300.5 ± 1.5 kg/m3 | 1286.4 ± 1.4 kg/m3 | 1265.7 ± 1.3 kg/m3 | 1229.5 ± 1.5 kg/m3 |  |  |  |  |  |  |  | 
2 | CCCCCCCCCCCCBr [1-bromododecane] |  |  | 1056.5 ± 1.3 kg/m3 | 1048.5 ± 1.2 kg/m3 | 1035.6 ± 1.2 kg/m3 | 1014 ± 1.4 kg/m3 | 1039.8 ± 1.1 kg/m3 | 996.2 ± 1.5 kg/m3 | 979 ± 1.7 kg/m3 | 952.4 ± 1.9 kg/m3 | 923.7 ± 2.2 kg/m3 |  |  | 
3 | CCCCCCCBr [1-bromoheptane] |  | 1169.6 ± 1.6 kg/m3 | 1159.2 ± 1.4 kg/m3 | 1148.7 ± 1.3 kg/m3 | 1132.9 ± 1.3 kg/m3 | 1106 ± 1.5 kg/m3 |  | 1084.5 ± 1.6 kg/m3 |  | 1026.6 ± 2 kg/m3 |  | 1191 ± 1.8 kg/m3 |  | 
4 | CCCCCCBr [1-bromohexane] | 1218 ± 1.7 kg/m3 |  | 1195.3 ± 1.5 kg/m3 | 1183.8 ± 1.3 kg/m3 | 1166.8 ± 1.3 kg/m3 | 1137.3 ± 1.5 kg/m3 |  | 1113.7 ± 1.6 kg/m3 | 1090.8 ± 1.8 kg/m3 |  |  |  | 1066.1 ± 1.9 kg/m3 | 1040.9 ± 2.1 kg/m3
5 | CCCCCCCCBr [1-bromooctane] | 1151.1 ± 1.7 kg/m3 | 1140.9 ± 1.5 kg/m3 | 1131.2 ± 1.4 kg/m3 | 1121.2 ± 1.3 kg/m3 | 1106 ± 1.3 kg/m3 | 1080.6 ± 1.5 kg/m3 | 1111 ± 1.2 kg/m3 | 1060.5 ± 1.6 kg/m3 | 1039.5 ± 1.8 kg/m3 | 1008.4 ± 2 kg/m3 |  |  |  | 
6 | CCCCCBr [1-bromopentane] | 1260.3 ± 2 kg/m3 | 1249.9 ± 1.9 kg/m3 | 1239.6 ± 1.8 kg/m3 |  | 1208.5 ± 1.6 kg/m3 | 1177.1 ± 1.8 kg/m3 | 1214.9 ± 1.6 kg/m3 | 1151 ± 1.9 kg/m3 | 1124.7 ± 2 kg/m3 | 1083.4 ± 2.2 kg/m3 |  |  | 1097.4 ± 2.2 kg/m3 | 
7 | CCCBr [1-bromopropane] | 1415.4 ± 1.8 kg/m3 | 1400.3 ± 1.7 kg/m3 | 1385.3 ± 1.6 kg/m3 | 1369.4 ± 1.5 kg/m3 | 1344.5 ± 1.4 kg/m3 |  |  |  |  |  |  | 1431.1 ± 1.9 kg/m3 |  | 
